Test results published in patent US11180771B2 (priority 2016, dated 2021).

Key:
[1] = test system: weeds (all species): Echinochloa species, Schoenoplectus mucronatus, Cypres difformis, Heteranthera limosa, Monochoria vaginalis; assay: Preflood oxyfluorfen rate test in water-seeded production system (Table 5), percent weeds; format: in vivo; conditions: treatments before flooding; mutant lines containing ROXY
Experimental: Oxyfluorfen resistant rice lines containing mutant allele ROXY, including 17Y3000, 14G3, 14G4, and 15G4, and the oxyfluorfen susceptible parent M-206 were tested at different rates of oxyfluorfen applied preflood in a water-seeded production system to assess seedling vigor, percent weeds, and yield as shown in Table 5. The design was a randomized complete block with 4 replication and 4 rates of oxyfluorfen (GoalTender®) herbicide. The plot size was 10×20 ft. The percent weeds (all species) were visually determined at 50 days after seeding in the plots and the plots were harvested at maturity. The weed species included a mixture of predominant weeds present including barnyard and late watergrass Echinochloa species, rice field bulrush Schoenoplectus mucronatus, small flower umbrella Cypres difformis, ducksalad Heteranthera limosa, and monochoria Monochoria vaginalis.

[2] = test system: weeds (all species): Echinochloa species, Schoenoplectus mucronatus, Cypres difformis, Heteranthera limosa, Monochoria vaginalis; assay: Drill-seeded herbicide treatment test (Table 6), percent weeds; format: in vivo; conditions: including combinations with Prowl and Clincher, lines with mutant ROXY allele
Experimental: Oxyfluorfen resistant rice lines containing mutant allele ROXY, including 17Y3000, 14G3, 14G4, and 15G4, and the oxyfluorfen susceptible parent M-206 without ROXY were tested by applying oxyfluorfen at different rates and times, and in combination with other herbicides in a drill-seeded production system and evaluated for percent weeds and yield as shown in Table 6. Preflush applications were made directly after drill-seeding just before the first irrigation of the basin and preflood applications occurred just before a permanent flood of basin at about 25 days after seeding. The design was a randomized complete block with 2 replication and treatments of oxyfluorfen (GoalTender®) and combinations of oxyfluorfen with the herbicides Prowl® and Clincher®. The active ingredient of Prowl® is pendimethalin (N-(1-ethylpropyl)-3,4-dimethyl-2,6-dinitrobenzenamine). Clincher® is an herbicide for selective postemergence grass weed control in rice with the active ingredient cyhalofop (2-[4-(4-cyano-2-fluorophenoxy) phenoxy] propanoic acid, butyl ester, (R)). The plot size was 6.4×20 ft. The percent weeds (all species) were visually determined at 50 days after seeding in the plots and the plots were harvested at maturity. […]

SMILES: CCOc1cc(Oc2ccc(C(F)(F)F)cc2Cl)ccc1[N+](=O)[O-] [Oxyfluorfen, oxyfluorfen]
- weed control [1]: high levels of weed control
- weed control [2]: high levels of weed control
